The source of these data is US12187723B2 (BRISTOL-MYERS SQUIBB COMPANY, priority 2019, dated 2025).

Usually IC50 stands for the concentration at which inhibition is half-maximal. Low values mean higher potency, high ones lower potency.

The target in this assay is T1, human TLR8 (Homo sapiens, UniProt Q9NR97).
T1 construct: host or cells: HEK-Blue cells
T1 sequence (Q9NR97 27-1041): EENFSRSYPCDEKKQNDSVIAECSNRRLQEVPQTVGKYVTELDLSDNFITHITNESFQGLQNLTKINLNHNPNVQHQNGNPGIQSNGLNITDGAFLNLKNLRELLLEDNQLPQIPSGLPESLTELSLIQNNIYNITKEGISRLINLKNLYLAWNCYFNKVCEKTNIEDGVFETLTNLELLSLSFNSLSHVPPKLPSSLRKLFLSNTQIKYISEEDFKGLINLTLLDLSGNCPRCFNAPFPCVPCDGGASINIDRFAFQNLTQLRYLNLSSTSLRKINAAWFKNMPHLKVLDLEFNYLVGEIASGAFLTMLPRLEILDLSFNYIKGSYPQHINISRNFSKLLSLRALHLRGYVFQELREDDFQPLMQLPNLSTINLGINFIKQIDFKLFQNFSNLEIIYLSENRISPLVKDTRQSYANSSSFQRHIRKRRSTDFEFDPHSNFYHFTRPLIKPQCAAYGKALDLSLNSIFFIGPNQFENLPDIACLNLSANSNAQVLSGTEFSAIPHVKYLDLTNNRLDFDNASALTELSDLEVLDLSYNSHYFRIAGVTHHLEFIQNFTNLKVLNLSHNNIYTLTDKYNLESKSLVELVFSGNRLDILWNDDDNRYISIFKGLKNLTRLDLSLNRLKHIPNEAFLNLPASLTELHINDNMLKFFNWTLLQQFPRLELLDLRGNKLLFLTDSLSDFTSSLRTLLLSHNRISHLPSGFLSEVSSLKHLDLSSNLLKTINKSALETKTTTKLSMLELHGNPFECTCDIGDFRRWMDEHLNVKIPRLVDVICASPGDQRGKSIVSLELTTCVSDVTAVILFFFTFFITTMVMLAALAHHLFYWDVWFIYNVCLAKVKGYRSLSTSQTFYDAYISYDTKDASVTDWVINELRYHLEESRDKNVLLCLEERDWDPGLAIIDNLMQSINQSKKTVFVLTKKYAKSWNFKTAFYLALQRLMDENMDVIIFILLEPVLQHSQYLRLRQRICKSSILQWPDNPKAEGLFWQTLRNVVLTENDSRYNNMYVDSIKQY
Put plainly: TLR8 inhibition reporter assay (HEK-Blue SEAP). The format is cell-based. The note with it: HEK-Blue cells overexpressing human TLR8, R848 15.9 μM, 22 hour incubation. The gist of the method:
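Agonists used: gardiquimod 7.5 μM (TLR7), R848 15.9 μM (TLR8), ODN2006 5 nM (TLR9), added after 30 min room-temperature compound pre-treatment (0.05 nM–50 μM) of receptor-overexpressing HEK-Blue cells. SEAP reporter (NF-κB/AP-1 driven) read after 22 h at 37 °C; inhibition scaled between agonist+DMSO and reference-inhibitor wells.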
(In a reporter assay the amount or activity of a reporter protein is the signal.)
Compound `CCCN1CCC[C@@H](n2c(=O)[nH]c3cc(-c4cn5ncnc5c(C)c4C)c(C(C)C)cc32)C1` [Example 150, (R)-5-(7,8-dimethyl-[1,2,4]triazolo[1,5-a]pyridin-6-yl)-6-isopropyl-1-(1-propylpiperidin-3-yl)-1,3-dihydro-2H-benzo[d]imidazol-2-one] displayed an IC50 of 4.25 nM.

In the case of `CCCN(CCC)[C@H]1CC[C@@H](n2c(=O)[nH]c3cc(-c4cc(OC)c5ncnn5c4)c(CC)cc32)CC1` [Example 168, 1-((1s,4s)-4-(dipropylamino)cyclohexyl)-6-ethyl-5-(8-methoxy-[1,2,4]triazolo[1,5-a]pyridin-6-yl)-1,3-dihydro-2H-benzo[d]imidazol-2-one], the half-inhibitory concentration (IC50) was determined as 1.53 nM.

Take `Cc1cc(-c2ccc3c(c2)[nH]c(=O)n3C2CCN(C(=O)CN(C)C)CC2)cn2ncnc12` [Example 102, 1-(1-(dimethylglycyl)piperidin-4-yl)-5-(8-methyl-[1,2,4]triazolo[1,5-a]pyridin-6-yl)-1,3-dihydro-2H-benzo[d]imidazol-2-one]: the IC50 was over 3130 nM.

On to `Cc1cc2c(cc1-c1cc(C)c3ncnn3c1)[nH]c(=O)n2[C@@H]1CCCN(CC(N)=O)C1` [Example 94, (R)-2-(3-(6-methyl-5-(8-methyl-[1,2,4]triazolo[1,5-a]pyridin-6-yl)-2-oxo-2,3-dihydro-1H-benzo[d]imidazol-1-yl)piperidin-1-yl)acetamide], for which the IC50 was found to be 339 nM.

The compound `CCC(CC)CN1CCC[C@@H](n2c(=O)[nH]c3cc(-c4cn5ncnc5c(C)c4C)c(C(C)C)cc32)C1` [Example 151, (R)-5-(7,8-dimethyl-[1,2,4]triazolo[1,5-a]pyridin-6-yl)-1-(1-(2-ethylbutyl)piperidin-3-yl)-6-isopropyl-1,3-dihydro-2H-benzo[d]imidazol-2-one] had an IC50 of 21.7 nM.

As to `COc1cc(-c2cc3[nH]c(=O)n([C@H]4CCCN(CC5CC5)C4)c3cc2C(C)C)cn2ncnc12` (single isomer, unassigned) [Example 128], the midpoint of inhibition, the IC50, lay at 2.63 nM.

The compound `Cc1cc2c(cc1-c1cc(C)c3ncnn3c1)[nH]c(=O)n2C1CCN(C(=O)CN(C)C)CC1` [Example 101, 1-(1-(dimethylglycyl)piperidin-4-yl)-6-methyl-5-(8-methyl-[1,2,4]triazolo[1,5-a]pyridin-6-yl)-1,3-dihydro-2H-benzo[d]imidazol-2-one] gave an IC50 of 50.3 nM.

As for `CCCN1CCC[C@@H](n2c(=O)[nH]c3cc(-c4cc(OC)c5ncnn5c4)c(C(C)C)cc32)C1` [Example 134, (R)-6-isopropyl-5-(8-methoxy-[1,2,4]triazolo[1,5-a]pyridin-6-yl)-1-(1-propylpiperidin-3-yl)-1,3-dihydro-2H-benzo[d]imidazol-2-one], the half-maximal inhibitory concentration (IC50) stood at 5.93 nM.

In the case of `COc1cc(-c2cc3[nH]c(=O)n([C@@H]4CCCN(CC(=O)N(C)C)C4)c3cc2C)cn2ncnc12` [Example 99, (R)-2-(3-(5-(8-methoxy-[1,2,4]triazolo[1,5-a]pyridin-6-yl)-6-methyl-2-oxo-2,3-dihydro-1H-benzo[d]imidazol-1-yl)piperidin-1-yl)-N,N-dimethylacetamide], the IC50 was found to be 354 nM.

`CCN1CCC[C@@H](n2c(=O)[nH]c3cc(-c4cc(OC)c5ncnn5c4)c(C(C)C)cc32)C1` [Example 138, (R)-1-(1-ethylpiperidin-3-yl)-6-isopropyl-5-(8-methoxy-[1,2,4]triazolo[1,5-a]pyridin-6-yl)-1,3-dihydro-2H-benzo[d]imidazol-2-one] had an IC50 of 2.64 nM.

`COc1cc(-c2cc3[nH]c(=O)n([C@@H]4CCCN(C5CCOCC5)C4)c3cc2C(C)C)cn2ncnc12` [Example 143, (R)-6-isopropyl-5-(8-methoxy-[1,2,4]triazolo[1,5-a]pyridin-6-yl)-1-(1-(tetrahydro-2H-pyran-4-yl)piperidin-3-yl)-1,3-dihydro-2H-benzo[d]imidazol-2-one]: the 50% inhibitory concentration (IC50) is 3.24 nM.

As to `COCCN1CCC[C@@H](n2c(=O)[nH]c3cc(-c4cc(C)c5ncnn5c4)c(C)cc32)C1` [Example 97, (R)-1-(1-(2-methoxyethyl)piperidin-3-yl)-6-methyl-5-(8-methyl-[1,2,4]triazolo[1,5-a]pyridin-6-yl)-1,3-dihydro-2H-benzo[d]imidazol-2-one], the IC50 was determined as 43.7 nM.

For the compound `CCCN1CCC[C@H](n2c(=O)[nH]c3cc(-c4cc(OC)c5ncnn5c4)c(C(C)C)cc32)C1` [Example 121, (S)-6-isopropyl-5-(8-methoxy-[1,2,4]triazolo[1,5-a]pyridin-6-yl)-1-(1-propylpiperidin-3-yl)-1,3-dihydro-2H-benzo[d]imidazol-2-one], the half-maximal inhibitory concentration (IC50) was 1.82 nM.

Compound `COc1cc(-c2cc3[nH]c(=O)n(C4CCN(C5CCOC5)CC4)c3cc2C(C)C)cn2ncnc12` (centres unmarked) [Example 162, 6-isopropyl-5-(8-methoxy-[1,2,4]triazolo[1,5-a]pyridin-6-yl)-1-(1-(tetrahydrofuran-3-yl)piperidin-4-yl)-1,3-dihydro-2H-benzo[d]imidazol-2-one] displayed an IC50 of 6.56 nM.

With `Cc1cc2c(cc1-c1cc(C)c3ncnn3c1)[nH]c(=O)n2[C@H]1CCCN(C(=O)CN(C)C)C1` [Example 103, (S)-1-(1-(dimethylglycyl)piperidin-3-yl)-6-methyl-5-(8-methyl-[1,2,4]triazolo[1,5-a]pyridin-6-yl)-1,3-dihydro-2H-benzo[d]imidazol-2-one], the concentration for half-maximal inhibition (IC50) was 205 nM.

`COc1cc(-c2cc3[nH]c(=O)n(C4CCN(C(C)C)CC4)c3cc2C)cn2ncnc12` [Example 10, 1-(1-isopropylpiperidin-4-yl)-5-(8-methoxy-[1,2,4]triazolo[1,5-a]pyridin-6-yl)-6-methyl-1,3-dihydro-2H-benzo[d]imidazol-2-one] gave an IC50 of 89.7 nM.

`COc1cc(-c2cc3[nH]c(=O)n([C@H]4CCCN(CCC(C)C)C4)c3cc2C(C)C)cn2ncnc12` [Example 132, (S)-1-(1-isopentylpiperidin-3-yl)-6-isopropyl-5-(8-methoxy-[1,2,4]triazolo[1,5-a]pyridin-6-yl)-1,3-dihydro-2H-benzo[d]imidazol-2-one] registered an IC50 of 10.1 nM.

In turn, `COc1cc(-c2cc3[nH]c(=O)n([C@@H]4CCCN(C5COC5)C4)c3cc2C(F)(F)F)cn2ncnc12` [Example 113, (R)-5-(8-methoxy-[1,2,4]triazolo[1,5-a]pyridin-6-yl)-1-(1-(oxetan-3-yl)piperidin-3-yl)-6-(trifluoromethyl)-1,3-dihydro-2H-benzo[d]imidazol-2-one] showed an IC50 of 113 nM.

`Cc1cc2c(cc1-c1cc(C)c3ncnn3c1)[nH]c(=O)n2[C@@H]1CCCN(CC(=O)N(C)C)C1` [Example 95, (R)—N,N-dimethyl-2-(3-(6-methyl-5-(8-methyl-[1,2,4]triazolo[1,5-a]pyridin-6-yl)-2-oxo-2,3-dihydro-1H-benzo[d]imidazol-1-yl)piperidin-1-yl)acetamide] returned an IC50 of 83.4 nM.

Compound `COc1cc(-c2cc3[nH]c(=O)n([C@@H]4CCCN(CC(C)(C)C)C4)c3cc2C(C)C)cn2ncnc12` [Example 153, (R)-6-isopropyl-5-(8-methoxy-[1,2,4]triazolo[1,5-a]pyridin-6-yl)-1-(1-neopentylpiperidin-3-yl)-1,3-dihydro-2H-benzo[d]imidazol-2-one] displayed an IC50 of 2.27 nM.

`COc1cc(-c2cc3[nH]c(=O)n([C@H]4CCCN(C5COC5)C4)c3cc2C(C)C)cn2ncnc12` [Example 123, (S)-6-isopropyl-5-(8-methoxy-[1,2,4]triazolo[1,5-a]pyridin-6-yl)-1-(1-(oxetan-3-yl)piperidin-3-yl)-1,3-dihydro-2H-benzo[d]imidazol-2-one] came in with an IC50 of 5.56 nM.

`CCN1CCC(n2c(=O)[nH]c3cc(-c4cc(OC)c5ncnn5c4)c(C)cc32)CC1` [Example 9, 1-(1-ethylpiperidin-4-yl)-5-(8-methoxy-[1,2,4]triazolo[1,5-a]pyridin-6-yl)-6-methyl-1,3-dihydro-2H-benzo[d]imidazol-2-one] registered an IC50 of 92.7 nM.

`CCCN1CCC(n2c(=O)[nH]c3cc(-c4cc(C)c5ncnn5c4)c(C)cc32)CC1` [Example 7, 6-methyl-5-(8-methyl-[1,2,4]triazolo[1,5-a]pyridin-6-yl)-1-(1-propylpiperidin-4-yl)-1,3-dihydro-2H-benzo[d]imidazol-2-one] displayed an IC50 of 48.6 nM.
